Measurements from patent US6162823A, “LTA4 hydrolase inhibitors” (G.D. Searle & Co., priority 1997, dated 2000).
Where a name gives a salt, the structure may show the parent alone. Read-outs that look alike come from different tables or passages of the source.

Assays:
[1] = biological target: T1, recombinant human LTA4 hydrolase (rhLTAH) (Homo sapiens, UniProt P09960); test: Recombinant Human LTA Hydrolase Assay for LTA Hydrolase Inhibitor Activity; assay type: biochemical; settings: 10 min preincubation with 250 ng enzyme, LTA4 substrate, room temperature, pH 7.4
T1 construct: made in house; host or cells: Spodoptera frugiperda Sf-9 cells (baculovirus)
T1 sequence (P09960 1-611): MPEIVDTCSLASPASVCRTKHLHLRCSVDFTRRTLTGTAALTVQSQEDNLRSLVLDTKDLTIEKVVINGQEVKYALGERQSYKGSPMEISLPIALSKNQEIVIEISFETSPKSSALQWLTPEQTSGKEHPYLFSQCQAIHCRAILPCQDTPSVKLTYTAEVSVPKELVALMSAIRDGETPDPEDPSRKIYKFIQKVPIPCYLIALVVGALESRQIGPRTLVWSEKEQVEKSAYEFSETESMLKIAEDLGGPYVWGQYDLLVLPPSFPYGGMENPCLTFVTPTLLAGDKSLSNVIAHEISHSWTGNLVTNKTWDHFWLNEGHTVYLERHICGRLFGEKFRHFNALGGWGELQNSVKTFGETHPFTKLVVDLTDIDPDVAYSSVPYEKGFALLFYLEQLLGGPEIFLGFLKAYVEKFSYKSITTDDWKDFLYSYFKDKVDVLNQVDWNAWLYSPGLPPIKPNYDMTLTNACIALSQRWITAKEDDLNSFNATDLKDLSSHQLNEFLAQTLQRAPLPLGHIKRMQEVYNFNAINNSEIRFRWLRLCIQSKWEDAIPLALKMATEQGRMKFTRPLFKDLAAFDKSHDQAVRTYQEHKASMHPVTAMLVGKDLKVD
Description: Compounds of the present invention were tested for LTA hydrolase inhibitor activity against recombinant human LTA hydrolase (rhLTAH).
One or more predetermined amounts of a compound of the invention were incubated in assay buffer (0.1 M potassium phosphate, 5 mg/ml fatty acid free BSA, 10% DMSO, pH 7.4) for 10 minutes at room temperature with 250 ng of recombinant hLTA4 H to allow binding, if any, between the enzyme and inhibitor. […] LTA4 (free acid) was thawed and diluted in assay buffer (minus DMSO) to a concentration of 350 ng/ml and 25 μl (8ng) of LTA4 substrate was added to the reaction mixture (total volume of reaction mixture=200 μl at time zero. Each reaction was carried out at room temperature for 10 minutes. The reaction was stopped by diluting 25 μl of the reaction mixture with 500 μl of the assay buffer without DMSO. LTA4 was quantified in the diluted sample by a commercially available enzyme-linked immunoassay [Caymen Chemical Col. Ann Arbor, Mich.] using the method recommended in the manufacturer's instructions and compared to the amount of LTA4 produced in a negative control (i.e., essentially identical conditions except without addition of an inhibitor compound). The IC50 was routinely calculated from the data produced.

[2] = test system: calcium ionophore-induced LTB4 production in human blood; test: Inhibition of calcium ionophore-induced LTB4 production in human blood (HWB); assay type: cell-based; settings: read-out: Inhibition of Calcium Ionophore-induced LTB4 Production in Human Blood (HWB) IC50
Description: LTB4 and Thromboxane Production by Calcium Ionophore Stimulated Human Blood for LTB4 Hydrolase Inhibitor Activity
Human blood, collected in heparin-containing Vacutainer tubes, was diluted 1:4 with RPMI-1640 media and 200 μl of the diluted blood was added into each of a 96-well microtiter plate. […] After incubating for 15 minutes at 37° C. in a humidified incubator, calcium ionophore A13187 (Sigma Chemical Co., St. Louis, Mo.) was added to a final concentration of 20 mcg/ml and the incubation continued under the same conditions for an additional 10 minutes to allow LTB4 formation. The reaction was terminated by centrifugation (833 g, 10 minutes at 4° C.) and supernatant were analyzed for LTB4 and thromboxane by commercially available enzyme-linked immunoassays (Caymen Chemical Co., Ann Arbor, Mich.) according to the manufacturer's instructions. The IC50 of each test compound was determined from the amount of inhibition of LTB4 production as compared to an essentially identical assay in which no inhibitor compound was present.

[3] = test system: LTB4 production by calcium ionophore stimulated mouse blood; test: Murine ex vivo LTB4 inhibition (calcium ionophore stimulated mouse blood after oral dosing); assay type: in vivo; settings: for inhibition at 10 mg/kg: read-out: Murine Ex Vivo LTB4 Inhibition, % I LTB4 at 1 hour after administration
Description: The compounds were administered by oral garage to adult male outbred mice weighing approximately 20-30 gm at a dose of 10 mg/kg body weight. […] The mixture was incubated for 10 minutes at 37° C. in a humidified incubator. The reaction was terminated by centrifugation (833 g. 10 minutes at 4° C.). Supernatant were analyzed for LTB4 and thromboxane by commercially available enzyme-linked immunoassays [Caymen Chemical Co., Ann Arbor, Mich.] in accordance with the manufacturer's instructions. The percent inhibition was determined by comparison to animals treated identically except that the solution administered by oral gavage was devoid of inhibitor compound.

[4] = test system: LTA4 hydrolase; settings: cited from earlier work
[5] = human whole blood diluted 1:4, 15 min preincubation at 37° C., ionophore 20 mcg/ml, 10 min
[6] = mouse, oral gavage, 10 mg/kg (* indicates 50 mg/kg), 1 hour after administration, ionophore A23187 20 mcg/ml

IC50 [1] [nM] | IC50 [2, 5] [nM] | Molecule | inhibition at 10 mg/kg [3, 6] [%] | Murine Ex Vivo LTB4 Inhibition, % I LTB4 at 1 hour after administration [3, 6] [%] | IC50 ([2]; Homo sapiens) [nM] | inhibition at 10 mg/kg ([3]; Mus musculus, po, 1 h) [%] | LTA4 hydrolase inhibitory activity [4]
12 | 80 | CC(C)N(CCCOc1ccc(Cc2cccs2)cc1)CCC(=O)NS(C)(=O)=O [Example 12, 3-[(1-methylethyl)[3-[4-[(2-thienyl)methyl-]phenoxy]propyl]-amino]-N-(methylsulfonyl)-propanamide monohydrochloride] | 68 |  |  |  | 
< 0.5 | 79 | CN(CCCOc1ccc(Cc2cccs2)cc1)CCC(=O)NS(=O)(=O)c1ccccc1 [Example 9] | 87 |  |  |  | 
0.5 | 130 | CN(CCCOc1ccc(Cc2ccsc2)cc1)CCC(=O)NS(=O)(=O)c1ccccc1 [Example 17, monohydrochloride] | 93 |  |  |  | 
100 | 110 | CC(C)(C)N(CCCOc1ccc(Cc2ccccc2)cc1)CCC(=O)NS(C)(=O)=O [Example 25] | 45 |  |  |  | 
2.3 | 40 | CC(C)N(CCCOc1ccc(Cc2cccs2)cc1)CCC(=O)NS(=O)(=O)c1ccccc1 [Example 13, 3-[(1-methylethyl)[3-[4-[(2-thienyl)methyl-]phenoxy]propyl]amino]-N-(phenylsulfonyl)-propanamide, monohydrochloride] |  |  |  |  | 
1.3 | 70 | CN(CCCOc1ccc(Cc2ccccc2)cc1)CCC(=O)NS(C)(=O)=O [Example 23] | 100 |  |  |  | 
33 | 66 | CCN(CCCOc1ccc(Cc2cccs2)cc1)CCC(=O)NS(C)(=O)=O [Example 11, 3-[Ethyl[3-[4-[(2-thienyl)methyl]phenoxy]propyl]-amino]-N-(methylsulfonyl)propanamide monohydrochloride] | 86 |  |  |  | 
 |  | C[C@H](CS)C(=O)N1CCC[C@H]1C(=O)O [captopril] |  |  |  |  | exhibit LTA4 hydrolase inhibitory activity
11 | 82 | CCN(CCCOc1ccc(Cc2ccsc2)cc1)CCC(=O)NS(=O)(=O)c1ccccc1 [Example 14, monohydrate] | 87 |  |  |  | 
 | 230 | CCN(CCCOc1ccc(Cc2ccsc2)cc1)CCC(=O)NS(C)(=O)=O [Example 15, 3-[Ethyl[3-[4-[(3-thienyl)methyl]phenoxy]propyl]-amino]-N-(methylsulfonyl)propanamide monohydrochloride] | 79 |  |  |  | 
450 | 200 | CC(C)N(CCCOc1ccc(Cc2ccsc2)cc1)CCC(=O)NS(C)(=O)=O [Example 16] | 85 |  |  |  | 
0.5 | 61 | CN(CCCOc1ccc(Cc2cccs2)cc1)CCC(=O)NS(C)(=O)=O [Example 10, N-(Methylsulfonyl)-3-[methyl[3-[4-[(2-thienyl)-methyl]phenoxy]propyl]amino]propanamide] | 93 |  |  |  | 
79 | 130 | CCN(CCCOc1ccc(Cc2ccccc2)cc1)CCC(=O)NS(=O)(=O)c1ccccc1 [Example 29] | 65 |  |  |  | 
2160 | 2710 | CS(=O)(=O)NC(=O)CCN(CCCOc1ccc(Cc2ccccc2)cc1)C1CC1 [Example 24] |  |  |  |  | 
 |  | CC(C)C[C@H](NC(=O)[C@@H](O)[C@H](N)Cc1ccccc1)C(=O)O [bestatin] |  |  |  |  | exhibit LTA4 hydrolase inhibitory activity
540 | 180 | CCN(CCCOc1ccc(Cc2ccccc2)cc1)CCC(=O)NS(C)(=O)=O [Example 28] | 89 |  |  |  | 
90 | 150 | CC(C)N(CCCOc1ccc(Cc2ccsc2)cc1)CCC(=O)NS(=O)(=O)c1ccccc1 [Example 21] | 60 |  |  |  | 
20 | 190 | CN(CCCOc1ccc(Cc2ccsc2)cc1)CCC(=O)NS(C)(=O)=O [Example 18, N-(methylsulfonyl)-3-[methyl[3-[4-[(3-thienyl)methyl]phenoxy]propyl]-amino]propanamide] | 94 |  |  |  | 

Molecule | IC50 [1] [nM] | IC50 [2, 5] [nM] | inhibition at 10 mg/kg [3, 6] [%] | Murine Ex Vivo LTB4 Inhibition, % I LTB4 at 1 hour after administration [3, 6] [%] | IC50 ([2]; Homo sapiens) [nM] | inhibition at 10 mg/kg ([3]; Mus musculus, po, 1 h) [%] | LTA4 hydrolase inhibitory activity [4]
N-(phenylsulfonyl)-3-[propyl[3-[4-[(3-thienyl)methyl]phenoxy]propyl]-amino]propanamide monohydrochloride [Example 19] | 90 | 75 |  | 45 |  |  | 
CC(C)N(CCCOc1ccc(Cc2ccccc2)cc1)CCC(=O)NS(C)(=O)=O [Example 27] | 47 | 100 |  | 44 |  |  | 
CN(CCCOc1ccc(Cc2ccccc2)cc1)CCC(=O)NS(=O)(=O)c1ccccc1 [Example 22] | 1 |  |  |  | 75 | 94 | 
N-(methylsulfonyl)-3-[propyl[3-[4-[(3-thienyl)methyl]phenoxy]propyl]-amino]propanamide [Example 20] | 150 | 150 |  | 56 |  |  | 
CC(C)N(CCCOc1ccc(Cc2ccccc2)cc1)CCC(=O)NS(C)(=O)=O [Example 26] | 160 | 220 | 81 |  |  |  | 
